Data: ChEMBL document CHEMBL4387721, “Proteolysis targeting chimeras (PROTACs) in 'beyond rule-of-five' chemical space: Recent progress and future challenges” (Bioorg Med Chem Lett, 2019)

Experiments:
[1] = molecular target: T1, Protein cereblon/Tyrosine-protein kinase BTK (Homo sapiens, UniProt Q06187+Q96SW2); experiment: Protac activity at CRBN/BTK in human Ramos cells assessed as induction of BTK protein degradation incubated for 24 hrs by Western blot analysis; type: cell-based
[2] = molecular target: T1, Protein cereblon/Tyrosine-protein kinase BTK; experiment: Protac activity at CRBN/BTK in human Ramos cells assessed as induction of BTK protein degradation at 300 nM incubated for 24 hrs by Western blot analysis relative to control; type: cell-based
Target sequence in this assay (Q06187 2-659 limits assumed): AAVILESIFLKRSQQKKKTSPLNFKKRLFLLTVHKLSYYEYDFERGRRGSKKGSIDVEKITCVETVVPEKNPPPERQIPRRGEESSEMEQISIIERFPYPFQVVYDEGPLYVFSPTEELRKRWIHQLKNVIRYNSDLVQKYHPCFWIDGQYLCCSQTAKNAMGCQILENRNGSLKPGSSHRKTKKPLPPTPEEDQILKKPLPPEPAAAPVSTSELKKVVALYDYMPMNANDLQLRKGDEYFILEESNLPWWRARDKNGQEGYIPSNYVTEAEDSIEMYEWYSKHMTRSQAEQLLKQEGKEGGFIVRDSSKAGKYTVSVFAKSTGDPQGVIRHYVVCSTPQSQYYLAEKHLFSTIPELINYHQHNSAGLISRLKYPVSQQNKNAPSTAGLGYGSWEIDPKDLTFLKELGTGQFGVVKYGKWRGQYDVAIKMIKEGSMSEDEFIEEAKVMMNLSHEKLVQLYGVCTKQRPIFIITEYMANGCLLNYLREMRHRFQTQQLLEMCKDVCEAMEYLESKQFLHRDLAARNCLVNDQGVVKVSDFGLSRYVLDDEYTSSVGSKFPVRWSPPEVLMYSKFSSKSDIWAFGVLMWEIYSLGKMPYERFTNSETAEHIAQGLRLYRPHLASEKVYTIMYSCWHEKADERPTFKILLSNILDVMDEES
Target sequence in this assay (Q96SW2 whole entry partner): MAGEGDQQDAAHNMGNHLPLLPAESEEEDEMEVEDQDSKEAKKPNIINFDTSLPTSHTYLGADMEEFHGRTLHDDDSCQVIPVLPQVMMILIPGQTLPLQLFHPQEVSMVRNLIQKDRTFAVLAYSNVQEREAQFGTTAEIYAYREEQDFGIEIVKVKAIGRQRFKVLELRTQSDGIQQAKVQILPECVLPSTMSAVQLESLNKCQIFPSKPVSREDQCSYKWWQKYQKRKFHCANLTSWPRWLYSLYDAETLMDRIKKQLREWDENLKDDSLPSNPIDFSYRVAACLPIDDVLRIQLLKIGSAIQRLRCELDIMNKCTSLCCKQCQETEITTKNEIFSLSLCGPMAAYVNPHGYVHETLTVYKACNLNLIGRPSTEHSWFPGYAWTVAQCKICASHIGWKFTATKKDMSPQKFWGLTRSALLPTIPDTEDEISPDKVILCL

[3] = molecular target: T2, von Hippel-Lindau disease tumor suppressor/Bromodomain-containing protein 4 (Homo sapiens, UniProt O60885+P40337); experiment: Protac activity at VHL/BRD4 in human 22Rv1 cells assessed as induction of BRD4 protein degradation incubated for 16 hrs by Western blot analysis relative to control; type: cell-based
T2 sequence (P40337 whole entry, looked up, other chains not shown): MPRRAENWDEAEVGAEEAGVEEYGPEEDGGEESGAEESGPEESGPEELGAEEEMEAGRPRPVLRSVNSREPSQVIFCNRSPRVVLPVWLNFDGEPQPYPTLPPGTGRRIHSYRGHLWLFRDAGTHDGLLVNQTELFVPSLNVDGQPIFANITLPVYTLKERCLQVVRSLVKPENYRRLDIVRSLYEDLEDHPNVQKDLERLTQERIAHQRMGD

[4] = molecular target: von Hippel-Lindau disease tumor suppressor/Bromodomain-containing protein 2 (Homo sapiens, UniProt P25440+P40337); experiment: Protac activity at VHL/BRD2 in human 22Rv1 cells assessed as induction of BRD2 protein degradation incubated for 16 hrs by Western blot analysis; type: cell-based
Chain of von Hippel-Lindau disease tumor suppressor/Bromodomain-containing protein 2 (P25440 whole entry, canonical isoform): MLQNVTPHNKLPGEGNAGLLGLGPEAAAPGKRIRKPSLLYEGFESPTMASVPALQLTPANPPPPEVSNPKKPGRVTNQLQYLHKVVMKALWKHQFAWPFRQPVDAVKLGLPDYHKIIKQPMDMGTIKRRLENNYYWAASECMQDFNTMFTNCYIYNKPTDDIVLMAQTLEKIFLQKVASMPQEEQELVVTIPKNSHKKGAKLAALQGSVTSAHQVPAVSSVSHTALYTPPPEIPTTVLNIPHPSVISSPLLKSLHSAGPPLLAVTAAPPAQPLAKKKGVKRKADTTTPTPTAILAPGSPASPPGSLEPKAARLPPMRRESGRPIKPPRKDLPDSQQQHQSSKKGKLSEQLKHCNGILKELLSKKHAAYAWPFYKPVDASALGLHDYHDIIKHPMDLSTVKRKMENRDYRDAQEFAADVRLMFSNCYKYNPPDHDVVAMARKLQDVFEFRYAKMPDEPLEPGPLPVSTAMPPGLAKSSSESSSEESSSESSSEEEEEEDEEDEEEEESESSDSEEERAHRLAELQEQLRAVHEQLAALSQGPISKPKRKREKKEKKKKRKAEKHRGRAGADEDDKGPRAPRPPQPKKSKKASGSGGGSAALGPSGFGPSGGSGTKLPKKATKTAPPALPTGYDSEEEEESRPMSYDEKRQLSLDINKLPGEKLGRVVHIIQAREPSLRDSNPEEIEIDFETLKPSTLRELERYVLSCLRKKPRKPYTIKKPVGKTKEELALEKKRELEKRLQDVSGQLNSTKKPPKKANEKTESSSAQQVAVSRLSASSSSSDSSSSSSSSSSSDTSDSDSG
Chain of von Hippel-Lindau disease tumor suppressor/Bromodomain-containing protein 2 (P40337 whole entry, canonical isoform): as the sequence (P40337 whole entry, looked up, other chains not shown) above

[5] = molecular target: T2, von Hippel-Lindau disease tumor suppressor/Bromodomain-containing protein 4; experiment: Protac activity at VHL/BRD4 short isoform in human HeLa cells assessed as induction of BRD4 short isoform degradation incubated for 24 hrs by Western blot analysis; type: cell-based
[6] = molecular target: T2, von Hippel-Lindau disease tumor suppressor/Bromodomain-containing protein 4; experiment: Protac activity at VHL/BRD4 short isoform in human HeLa cells assessed as induction of BRD4 short isoform degradation incubated for 24 hrs by Western blot analysis relative to control; type: cell-based
[7] = molecular target: von Hippel-Lindau disease tumor suppressor/Receptor-interacting serine/threonine-protein kinase 2 (Homo sapiens) (UniProt O43353+P40337); experiment: Protac activity at VHL/RIPK2 in human THP1 cells assessed as induction of RIPK2 protein degradation at 10 nM incubated for 16 hrs by Western blot analysis relative to control; type: cell-based
Chain of von Hippel-Lindau disease tumor suppressor/Receptor-interacting serine/threonine-protein kinase 2 (Homo sapiens) (O43353 whole entry, looked up): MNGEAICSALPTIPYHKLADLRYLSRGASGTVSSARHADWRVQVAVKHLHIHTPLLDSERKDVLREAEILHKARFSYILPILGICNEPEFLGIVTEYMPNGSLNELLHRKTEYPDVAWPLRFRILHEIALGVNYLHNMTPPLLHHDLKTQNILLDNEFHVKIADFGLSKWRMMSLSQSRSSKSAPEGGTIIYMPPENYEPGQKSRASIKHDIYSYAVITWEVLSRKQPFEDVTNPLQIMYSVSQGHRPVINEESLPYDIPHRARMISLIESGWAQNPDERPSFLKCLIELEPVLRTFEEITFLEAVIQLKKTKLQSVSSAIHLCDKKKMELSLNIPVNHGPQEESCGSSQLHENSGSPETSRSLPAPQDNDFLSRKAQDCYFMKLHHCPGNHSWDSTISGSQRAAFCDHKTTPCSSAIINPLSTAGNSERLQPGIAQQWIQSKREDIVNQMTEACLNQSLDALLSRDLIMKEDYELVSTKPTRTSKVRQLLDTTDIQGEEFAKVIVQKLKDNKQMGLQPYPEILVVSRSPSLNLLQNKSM
Chain of von Hippel-Lindau disease tumor suppressor/Receptor-interacting serine/threonine-protein kinase 2 (Homo sapiens) (P40337 whole entry, looked up): as the sequence (P40337 whole entry, looked up, other chains not shown) above

[8] = molecular target: Protein cereblon/Bromodomain-containing protein 4 (Homo sapiens) (UniProt O60885+Q96SW2); experiment: Protac activity at Cereblon/BRD4 in human MV411 cells assessed as induction of BRD4 protein degradation at 1 uM incubated for 18 hrs by immunoblot analysis relative to control; type: cell-based
Chain of Protein cereblon/Bromodomain-containing protein 4 (Homo sapiens) (Q96SW2 whole entry, looked up, other chains not shown): as the sequence (Q96SW2 whole entry partner) above

[9] = molecular target: T3, Protein cereblon/Cyclin-dependent kinase 9 (Homo sapiens, UniProt P50750+Q96SW2); experiment: Protac activity at CRBN/CDK9 in human MOLT4 cells assessed as induction of CDK9 protein degradation after 6 hrs by Western blot analysis relative to control; type: cell-based
[10] = molecular target: T3, Protein cereblon/Cyclin-dependent kinase 9; experiment: Protac activity at CRBN/CDK9 in human MOLT4 cells assessed as induction of CDK9 protein degradation after 6 hrs by Western blot analysis; type: cell-based
Target sequence in this assay (P50750 whole entry): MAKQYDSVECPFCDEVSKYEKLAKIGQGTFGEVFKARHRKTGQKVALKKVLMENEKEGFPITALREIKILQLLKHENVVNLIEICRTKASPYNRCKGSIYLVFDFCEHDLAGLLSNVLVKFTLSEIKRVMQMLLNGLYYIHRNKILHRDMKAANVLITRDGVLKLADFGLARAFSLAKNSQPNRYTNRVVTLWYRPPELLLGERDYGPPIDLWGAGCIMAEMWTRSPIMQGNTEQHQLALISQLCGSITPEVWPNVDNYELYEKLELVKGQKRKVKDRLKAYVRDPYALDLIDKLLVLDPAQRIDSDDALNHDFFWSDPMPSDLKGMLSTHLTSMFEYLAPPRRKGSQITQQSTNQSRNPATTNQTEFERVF
Target sequence in this assay (Q96SW2 whole entry): as the sequence (Q96SW2 whole entry partner) above

[11] = molecular target: T1, Protein cereblon/Tyrosine-protein kinase BTK; experiment: Protac activity at CRBN/BTK in human NAMALWA cells assessed as induction of BTK protein degradation at 100 nM incubated for 24 hrs by immunoblotting method relative to control; type: cell-based
Target sequence in this assay (Q06187 2-659 limits assumed): as the sequence (Q06187 2-659 limits assumed) above
Target sequence in this assay (Q96SW2 whole entry partner): as the sequence (Q96SW2 whole entry partner) above

[12] = molecular target: T4, von Hippel-Lindau disease tumor suppressor/Focal adhesion kinase 1 (Homo sapiens, UniProt Q05397+P40337); experiment: Protac activity at VHL/FAK in serum deprived human PC3 cells assessed as induction of FAK protein degradation in serum deprived human PC3 cells after 24 hrs by Western blot analysis
[13] = molecular target: T4, von Hippel-Lindau disease tumor suppressor/Focal adhesion kinase 1; experiment: Protac activity at VHL/FAK in serum deprived human PC3 cells assessed as induction of FAK protein degradation in serum deprived human PC3 cells at 50 nM after 24 hrs by Western blot analysis relative to control
[14] = molecular target: T5, Protein cereblon/B-cell lymphoma 6 protein (Homo sapiens, UniProt Q96SW2+P41182); experiment: Protac activity at CRBN/BCL6 in human SUDHL4 cells assessed as induction of BCL6 protein degradation at 1 uM after 4 hrs by Western blot analysis relative to control; type: cell-based
T5 sequence (Q96SW2 whole entry, looked up, other chains not shown): as the sequence (Q96SW2 whole entry partner) above

[15] = molecular target: T5, Protein cereblon/B-cell lymphoma 6 protein; experiment: Protac activity at CRBN/BCL6 in human SUDHL4 cells assessed as induction of BCL6 protein degradation after 4 hrs by Western blot analysis; type: cell-based
[16] = molecular target: T3, Protein cereblon/Cyclin-dependent kinase 9; experiment: Protac activity at CRBN/CDK9 in human HCT116 cells assessed as induction of CDK9 protein degradation after 6 hrs by Western blot analysis; type: cell-based
Target sequence in this assay (P50750 whole entry): as the sequence (P50750 whole entry) above
Target sequence in this assay (Q96SW2 whole entry): as the sequence (Q96SW2 whole entry partner) above

## NC(=O)c1c(-c2ccc(Oc3ccc(F)cc3F)cc2)nn([C@@H]2CCCN(C(=O)OCCOCCOCCOCCOCCOCCNc3cccc4c3C(=O)N(C3CCC(=O)NC3=O)C4=O)C2)c1N (stereo partly specified)
[1]
  DC50: 1.1 nM
[2]
  Emax: 87%

## Cc1ncsc1-c1ccc([C@H](C)NC(=O)[C@@H]2C[C@@H](O)CN2C(=O)[C@@H](NC(=O)COCCCOCCNC(=O)C[C@@H]2N=C(c3ccc(Cl)cc3)c3c(sc(C)c3C)-n3c(C)nnc32)C(C)(C)C)cc1
[3]
  Emax: > 99%
[4]
  DC50: < 5 nM

## CC(=O)N[C@H](C(=O)N1C[C@H](O)C[C@H]1C(=O)NCc1ccc(-c2scnc2C)cc1)C(C)(C)SCCCCCCNC(=O)C[C@@H]1N=C(c2ccc(Cl)cc2)c2c(sc(C)c2C)-n2c(C)nnc21
[5]
  DC50: 10 to 100 nM
[6]
  Emax: > 90%

## Cc1ncsc1-c1ccc(CNC(=O)[C@@H]2C[C@@H](O)CN2C(=O)[C@@H](NC(=O)COCCOCCOCCOCCOc2cc3nccc(Nc4ccc5scnc5c4)c3cc2S(=O)(=O)C(C)(C)C)C(C)(C)C)cc1
[7]
  Emax: > 95%

## Cc1sc2c(c1C)C(c1ccc(Cl)cc1)=N[C@@H](CC(=O)NCCCCNC(=O)COc1cccc3c1C(=O)N(C1CCC(=O)NC1=O)C3=O)c1nnc(C)n1-2 (stereo partly specified)
[8]
  Emax: 95%

## CC(C)(C)c1cnc(CSc2cnc(NC(=O)C3CCN(CC(=O)NCCOCCOCCOCCNc4cccc5c4C(=O)N(C4CCC(=O)NC4=O)C5=O)CC3)s2)o1 (stereo unspecified)
[9]
  Emax: > 95%
[10]
  DC50: < 250 nM

## Nc1ncnc2c1c(-c1ccc(Oc3ccccc3)cc1)nn2C1CCN(CCOCCOCC(=O)Nc2ccc3c(c2)C(=O)N(C2CCC(=O)NC2=O)C3=O)CC1 (stereo unspecified)
[11]
  Emax: > 99%

## Cc1ncsc1-c1ccc(CNC(=O)[C@@H]2C[C@@H](O)CN2C(=O)[C@@H](NC(=O)CCOCCOc2ccc(Nc3ncc(C(F)(F)F)c(NCc4cccc(N(C)S(C)(=O)=O)c4)n3)cc2)C(C)(C)C)cc1
[12]
  DC50: 3 nM
[13]
  Emax: > 99%

## CN1C(=O)CCc2cc3cc(c21)OCCOC[C@H]1CN(C(=O)CCC(=O)NCCCOCCOCCOCCOCCOc2cccc4c2C(=O)N(C2CCC(=O)NC2=O)C4=O)CCN1c1ncc(Cl)c(n1)N3 (stereo partly specified)
[14]
  Emax: 84%
[15]
  DC50: < 1000 nM

## O=C1CCC(N2C(=O)c3cccc(OCCCCCOc4ccc(CC(=O)Nc5cc(C6CCC6)n[nH]5)cc4)c3C2=O)C(=O)N1 (stereo unspecified)
[16]
  DC50: 10000 nM
